The results in this text go back to patent publication US9365540B2, “Benzimidazole derivatives as MCH receptor antagonists” (Takeda Pharmaceutical Company Limited, priority 2012, dated 2016).

The structures appear in SMILES notation. Counter-ions that a name gives are not always drawn. Like-named read-outs stand apart in the source and are kept apart here.

In one experiment the target is T1, human MCHR1 (Homo sapiens, UniProt Q99705).
T1 construct: expressed in transfected cells; host or cells: CHO dhfr- cells, clone #4
Briefly: MCH receptor 1 antagonistic activity, Ca2+ mobilization assay. It counts as cell-based. The conditions noted are these: for inhibition at 0.1 µM: CHO, read-out: Inhibitory rate % (0.1 μM); for Inhibitory rate % (0.1 μM): hydrochloride. On the procedure:
Measurement of MCH Receptor 1 Antagonistic Activity of Test Compound Using Ca^2+ Mobilization Assay Using an expression vector plasmid introduced with human MCHR1 gene for expression in animal cells, human MCHR1 gene was introduced into CHO cells (CHO dhfr^−) by Lipofectamine LTX (Invitrogen). The cells were cultured in selection MEMα medium [445 mL of MEMα medium without nucleic acid and added with 5 mL of Penicillin-Streptomycin (Invitrogen) and 50 mL of dialyzed fetal bovine serum]. Colony 24 clones grown in the selection medium, which were human MCHR1 gene-expressing CHO cell candidates, were selected. […] In the following test, this human MCHR1-expressing CHO cell (clone #4) was used. An integrated dispensing function fluorometer (CellLux, PerkinElmer) was used for Ca^2+ mobilization assay. […] The medium was removed, and the cells were washed with phosphate buffered saline (PBS). […] The plate was set on a plate reader. […] The inhibition rates (%) of test compounds (0.1 μM) as antagonist activity measured using human MCHR1-expressing CHO cells (clone #4) are shown in the following Table 3.
A general note: Calcium flux is commonly read through the fluorescence of an indicator in the cells.

Experiment [1] has as its target T2, human MCH receptor 1 (MCHR1) (Homo sapiens, UniProt Q99705).
T2 construct: expressed in transfected cells; host or cells: CHO cell clone 57 (membrane fraction)
Nature of the experiment: human MCH receptor 1 (MCHR1) competitive binding assay with [125I]-MCH(4-19). The conditions noted are these: test compound 0.1 μM, human MCHR1-expressing CHO cell membrane fraction; for inhibition at 0.1 µM: read-out: Binding inhibition rate % (0.1 μM). The gist of the method: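 Percent binding inhibition by 0.1 μM test compound, corrected for nonspecific binding defined with unlabeled MCH(1-19), is read by scintillation after filtration onto PEI-treated GF/C filters. The reaction runs 1 hr at room temperature with [125I]-MCH(4-19) and human MCHR1-CHO cell membranes in Tris-HCl pH 7.5 buffer containing EDTA and protease inhibitors.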

[2] abbreviates: test compound 0.1 μM, human MCHR1-expressing CHO cells (clone #4), ligand MCH(4-19) 2 nM.

T2 sequence (Q99705 whole entry): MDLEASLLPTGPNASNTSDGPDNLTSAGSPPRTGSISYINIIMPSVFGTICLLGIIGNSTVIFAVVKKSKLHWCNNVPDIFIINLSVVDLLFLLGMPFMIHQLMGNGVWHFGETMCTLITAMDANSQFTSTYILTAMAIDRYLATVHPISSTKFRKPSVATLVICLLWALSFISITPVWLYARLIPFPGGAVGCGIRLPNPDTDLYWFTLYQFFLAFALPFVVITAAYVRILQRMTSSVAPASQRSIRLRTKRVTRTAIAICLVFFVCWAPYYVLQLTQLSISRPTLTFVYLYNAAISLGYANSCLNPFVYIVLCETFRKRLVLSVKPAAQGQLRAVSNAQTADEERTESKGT
T1 sequence (Q99705 whole entry): as above

As for `Cn1c(C2CC2)nc2ccc(-n3ccc(OCc4ccc(Cl)o4)cc3=O)cc21` [Example 202, 4-((5-Chloro-2-furyl)methoxy)-1-(2-cyclopropyl-1-methyl-1H-benzimidazol-6-yl)pyridin-2(1H)-one], the figures for the inhibition at 0.1 µM (at human MCHR1 (setting [2]); in experiment [1]) were 104% and 67%, respectively.

For `Cn1c(C2CC2)nc2ccc(-n3ccc(OCc4cc(Cl)cs4)cc3=O)cc21` [Example 228, 4-((4-Chlorothiophen-2-yl)methoxy)-1-(2-cyclopropyl-1-methyl-1H-benzimidazol-6-yl)pyridin-2(1H)-one], the inhibition at 0.1 µM on human MCHR1 (setting [2]) is 103%; in experiment [1], 89%.

On to `CCc1nc2ccc(-n3ccc(OCc4csc(F)c4)cc3=O)cc2n1C` [Example 231, 1-(2-Ethyl-1-methyl-1H-benzimidazol-6-yl)-4-((5-fluoro-3-thienyl)methoxy)pyridin-2(1H)-one], for which the inhibition at 0.1 µM on human MCHR1 (setting [2]) amounted to 95%; in experiment [1], 71%.

Take `CCc1nc2ccc(-n3ccc(OCc4ccsc4)cc3=O)cc2n1C` [Example 235, 1-(2-Ethyl-1-methyl-1H-benzimidazol-6-yl)-4-(3-thienylmethoxy)pyridin-2(1H)-one]: the inhibition at 0.1 µM at human MCHR1 (setting [2]) is 93%; in experiment [1] it was 69%.

For the compound `CCc1nc2ccc(-n3ccc(OCc4cc(Cl)cs4)cc3=O)cc2n1C` [Example 236, 4-((4-Chlorothiophen-2-yl)methoxy)-1-(2-ethyl-1-methyl-1H-benzimidazol-6-yl)pyridin-2(1H)-one], the figures for the inhibition at 0.1 µM (on human MCHR1 (setting [2]); in experiment [1]) were 96% and 76%, respectively.

For `Cn1c(C2CC2C#N)nc2ccc(-n3ccc(OCc4ccc(Cl)cc4)cc3=O)cc21` (stereo not drawn) [Example 237, (1R*,2S*)-2-(6-(4-((4-Chlorobenzyl)oxy)-2-oxopyridin-1(2H)-yl)-1-methyl-1H-benzimidazol-2-yl)cyclopropanecarbonitrile hydrochloride], the “Inhibitory rate % (0.1 μM)” value at human MCHR1 (setting [2]) turned out to be 67%. Further, the inhibition at 0.1 µM in experiment [1] is 78%.

Consider `Cn1c(C2CC2C#N)nc2ccc(-n3ccc(OCc4ccc(Cl)cc4)cc3=O)cc21` (stereo not drawn) [Example 238, (1R*,2S*)-2-(6-(4-((4-Chlorobenzyl)oxy)-2-oxopyridin-1(2H)-yl)-1-methyl-1H-benzimidazol-2-yl)cyclopropanecarbonitrile hydrochloride], for which the “Inhibitory rate % (0.1 μM)” value on human MCHR1 (setting [2]) is reported as 42%. For the same compound, the “Binding inhibition rate % (0.1 μM)” value in experiment [1] (hydrochloride, 0.1 µM) was found to be 65%.

Turning to `Cn1c(C2CC2)nc2ccc(-n3ccc(OCc4cc(F)c(F)s4)cc3=O)cc21` [Example 239, 1-(2-Cyclopropyl-1-methyl-1H-benzimidazol-6-yl)-4-((4,5-difluoro-2-thienyl)methoxy)pyridin-2(1H)-one], the inhibition at 0.1 µM is 92% at human MCHR1 (setting [2]) and 74% in experiment [1].

`Cn1c(C2CC2)nc2ccc(-n3ccc(OCc4cc(Br)cs4)cc3=O)cc21` [Example 240, 4-((4-Bromo-2-thienyl)methoxy)-1-(2-cyclopropyl-1-methyl-1H-benzimidazol-6-yl)pyridin-2(1H)-one]: the results for the inhibition at 0.1 µM (on human MCHR1 (setting [2]); in experiment [1]) were 99% and 91%, respectively.

Take `Cn1c(C2CC2)nc2ccc(-n3ccc(OCc4ccc(C(F)(F)F)o4)cc3=O)cc21` [Example 241, 1-(2-Cyclopropyl-1-methyl-1H-benzimidazol-6-yl)-4-((5-(trifluoromethyl)-2-furyl)methoxy)pyridin-2(1H)-one]: the results for the inhibition at 0.1 µM (on human MCHR1 (setting [2]); in experiment [1]) were 76% and 56%, respectively.

With `Cn1c(C2CC2)nc2ccc(-n3ccc(COc4ccc(F)cc4)cc3=O)cc21` [Example 243, 1-(2-Cyclopropyl-1-methyl-1H-benzimidazol-6-yl)-4-((4-fluorophenoxy)methyl)pyridin-2(1H)-one], the inhibition at 0.1 µM was 72% at human MCHR1 (setting [2]) and 38% in experiment [1].

As to `Cn1c(C2CC2)nc2ccc(-n3ccc(OCc4cc(Br)c(F)s4)cc3=O)cc21` [Example 244, 4-((4-Bromo-5-fluoro-2-thienyl)methoxy)-1-(2-cyclopropyl-1-methyl-1H-benzimidazol-6-yl)pyridin-2(1H)-one], the inhibition at 0.1 µM stood at 98% on human MCHR1 (setting [2]) and 83% in experiment [1].

For `Cn1c(C2CC2)nc2ccc(-n3ccc(COc4ccc(Cl)cc4)cc3=O)cc21` [Example 245, 4-((4-Chlorophenoxy)methyl)-1-(2-cyclopropyl-1-methyl-1H-benzimidazol-6-yl)pyridin-2(1H)-one], the figures for the inhibition at 0.1 µM (on human MCHR1 (setting [2]); in experiment [1]) were 58% and 59%, respectively.

Regarding `Cn1c(C2CC2)nc2ccc(-n3ccc(OCc4ccc(C(F)F)s4)cc3=O)cc21` [Example 248, 1-(2-Cyclopropyl-1-methyl-1H-benzimidazol-6-yl)-4-((5-(difluoromethyl)-2-thienyl)methoxy)pyridin-2(1H)-one], the inhibition at 0.1 µM at human MCHR1 (setting [2]) came to 97%; in experiment [1] it was 79%.

As to `Cn1c(C2CC2)nc2ccc(-n3ccc(OCc4csc(Br)c4)cc3=O)cc21` [Example 250, 4-((5-Bromo-3-thienyl)methoxy)-1-(2-cyclopropyl-1-methyl-1H-benzimidazol-6-yl)pyridin-2(1H)-one], the inhibition at 0.1 µM at human MCHR1 (setting [2]) is 100%; in experiment [1], 92%.

As to `Cn1c(C2CC2)nc2ccc(-n3ccc(OCc4nc(C(F)(F)F)cs4)cc3=O)cc21` [Example 256, 1-(2-Cyclopropyl-1-methyl-1H-benzimidazol-6-yl)-4-((4-(trifluoromethyl)-1,3-thiazol-2-yl)methoxy)pyridin-2(^1H)-one], the inhibition at 0.1 µM at human MCHR1 (setting [2]) came to 97%; in experiment [1] it was 70%.

As for `Cn1c(C2CC2)nc2ccc(-n3ccc(OCc4ccc(Br)o4)cc3=O)cc21` [Example 259, 4-((5-Bromo-2-furyl)methoxy)-1-(2-cyclopropyl-1-methyl-1H-benzimidazol-6-yl)pyridin-2(1H)-one], the inhibition at 0.1 µM is 100% at human MCHR1 (setting [2]) and 70% in experiment [1].

For the compound `Cn1c(C2CC2)nc2ccc(-n3ccc(OCc4ccc(Br)cn4)cc3=O)cc21` [Example 260, 4-((5-Bromopyridin-2-yl)methoxy)-1-(2-cyclopropyl-1-methyl-1H-benzimidazol-6-yl)pyridin-2(1H)-one], the inhibition at 0.1 µM is 104% at human MCHR1 (setting [2]) and 75% in experiment [1].

As to `CCc1nc2ccc(-n3ccc(OCc4nc(C(F)(F)F)cs4)cc3=O)cc2n1C` [Example 261, 1-(2-Ethyl-1-methyl-1H-benzimidazol-6-yl)-4-((4-(trifluoromethyl)-1,3-thiazol-2-yl)methoxy)pyridin-2(1H)-one], the inhibition at 0.1 µM at human MCHR1 (setting [2]) was determined as 100%; in experiment [1], 57%.

As to `Cn1c(C2CC2)nc2ccc(-n3ccc(OCc4coc(Br)c4)cc3=O)cc21` [Example 262, 4-((5-Bromo-3-furyl)methoxy)-1-(2-cyclopropyl-1-methyl-1H-benzimidazol-6-yl)pyridin-2(1H)-one], the inhibition at 0.1 µM on human MCHR1 (setting [2]) turned out to be 98%; in experiment [1], 80%.

For the compound `Cc1c(C2CC2)nc2ccc(-n3ccc(OCc4ccccn4)cc3=O)cn12` [Example 263, 1-(2-Cyclopropyl-3-methylimidazo[1,2-a]pyridin-6-yl)-4-(pyridin-2-ylmethoxy)pyridin-2(1H)-one hydrochloride], the inhibition at 0.1 µM at human MCHR1 amounted to 52%; in experiment [1], 30%.

For the compound `CCc1nc2ccc(-n3ccc(OCc4csc(C(F)(F)F)c4)cc3=O)cc2n1C` [Example 265, 1-(2-Ethyl-1-methyl-1H-benzimidazol-6-yl)-4-((5-(trifluoromethyl)-3-thienyl)methoxy)pyridin-2(1H)-one], the results for the inhibition at 0.1 µM (at human MCHR1 (setting [2]); in experiment [1]) were 97% and 61%, respectively.

In the case of `Cc1csc(COc2ccn(-c3ccc4nc(C5CC5)n(C)c4c3)c(=O)c2)n1` [Example 268, 1-(2-Cyclopropyl-1-methyl-1H-benzimidazol-6-yl)-4-((4-methyl-1,3-thiazol-2-yl)methoxy)pyridin-2(1H)-one], the inhibition at 0.1 µM came to 86% at human MCHR1 (setting [2]) and 66% in experiment [1].

As for `Cn1c(C2CC2)nc2ccc(-n3ccc(OCc4nc(CF)cs4)cc3=O)cc21` [Example 270, 1-(2-Cyclopropyl-1-methyl-1H-benzimidazol-6-yl)-4-((4-(fluoromethyl)-1,3-thiazol-2-yl)methoxy)pyridin-2(1H)-one], the inhibition at 0.1 µM on human MCHR1 (setting [2]) was 73%; in experiment [1] it was 58%.

With `Cn1c(C2CC2)nc2ccc(-n3ccc(OCc4nc(C5CC5)cs4)cc3=O)cc21` [Example 277, 1-(2-Cyclopropyl-1-methyl-1H-benzimidazol-6-yl)-4-((4-cyclopropyl-1,3-thiazol-2-yl)methoxy)pyridin-2(1H)-one], the inhibition at 0.1 µM was determined as 77% on human MCHR1 (setting [2]) and 55% in experiment [1].
